Data as given in patent US5425942A, “Polyfunctinal protease” (Otsuka Pharamceutical Co., Ltd., priority 1988, dated 1995).
Where “and” joins values, the source holds several entries; their conditions need not be identical. Equal values may be shown once. Read-outs that look alike come from different tables or passages of the source.

Molecular target: T1, human proteasome (Homo sapiens, UniProt P28072+P28074+Q99436)
T1 construct: The desired homogeneous human proteasome was thus recovered in the fraction at about 340 mM KCl; from tissue
Test: Activity inhibition of human proteasome by protease inhibitors
Format: biochemical

Compound | Inhibition Rate (%) by Inhibitor | inhibition at 10000 µM (read-out: Inhibition Rate (%) by Inhibitor) [%] | Inhibition Rate (%) by Inhibitor (substrate Cbz-Ala-Arg-Arg-MNA, inhibitor 50 μg/ml, 2 μg proteasome, room temperature, one hour, optimal pH) [%] | Inhibition Rate (%) by Inhibitor (substrate Cbz-Leu-Leu-Glu-NA, inhibitor 50 μg/ml, 2 μg proteasome, room temperature, one hour, optimal pH) [%] | Inhibition Rate (%) by Inhibitor (substrate Suc-Leu-Leu-Val-Tyr-MCA, inhibitor 50 μg/ml, 2 μg proteasome, room temperature, one hour, optimal pH) [%]
CCN1C(=O)C=CC1=O [C, N-ethylmaleimide] | 96% and 99% | 88 | – | – | –
Chymostatin [B] | – | – | 19 | 0 | 75
